IC50 data for 23 compounds are collected here from US12509424B2, “Compound and composition as PDGF receptor kinase inhibitor” (NIPPON SHINYAKU CO., LTD., priority 2019, dated 2025).

Test [1] deals with PDGFR-β (Homo sapiens (Human), UniProt P09619). Description: PDGFR-β tyrosine kinase inhibitory action (HTRF KinEASE-TK). In kind it is biochemical. To be noted: PDGFR-β enzyme 1 ng/μL, 30° C. for 30 minutes; read-out: PDGF-β IC50. In outline:
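Recombinant PDGFR-β at 1 ng/μL final with TK substrate-3-biotin in a substrate solution containing 0.6 μM ATP; buffer 50 mM HEPES pH 7.0, 5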

The target in test [2] is TEL-PDGFRβ fusion gene transfected cells (Ba/F3). Kind of test: Suppression of proliferation of TEL-PDGFRβ fusion gene transfected Ba/F3 cells. In kind it is cell-based, human. Particulars: TEL-PDGFRβ expressing Ba/F3 cells, 72 hours, final concentration 0.1 to 10,000 nM; read-out: PDGFR β/BaF3 proliferation inhibition (IC50). The text has this: 2. Preparation of Test Substance
4. Analysis of Measurement Results

The test system of test [3] is pulmonary arterial smooth muscle cells. Kind of test: Suppression of proliferation of pulmonary arterial smooth muscle cells (PDGF-BB stimulation, BrdU). In kind it is cell-based. Particulars: PASMC, read-out: Human normal PASMC proliferation suppression (PDGF stimulation_IC50). A digest of the protocol: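 Test compound (final 3 to 10,000 nM) was added together with BrdU and PDGF-BB (final 10 ng/mL) to healthy human pulmonary artery smooth muscle cells held a day in 0.1% FBS. Proliferation was read after 1 day as anti-BrdU-detected BrdU incorporation.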

In test [4] the target is TEL-KIT fusion gene transfected cells (Ba/F3). Description: Suppression of proliferation of TEL-KIT fusion gene transfected Ba/F3 cells.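 Further: viable cells quantified via formazan from tetrazolium reduction, inhibition scaled with 0.1% DMSO control as 0% and medium-only blank as 100%, IC50 from two-parameter logistic fit.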 To be noted: read-out: KIT/BaF3 proliferation inhibition (IC50); TEL-KIT expressing Ba/F3 cells, 72 hours, final concentration 0.1 to 10,000 nM.
Where [5] appears, read: human PDGF-BB 10 ng/mL, BrdU uptake, final concentration 3 to 10,000 nM.
Setting [6] is: 24 h, healthy human derived pulmonary arterial smooth muscle cells, human PDGF-BB 10 ng/mL stimulation, BrdU uptake after 1 day, test substance final concentration 3 to 10,000 nM.

pIC50: −log10 of the molar value. Like-named read-outs stand apart in the source and are kept apart here.

Sequence of TEL-PDGFRβ fusion gene transfected cells (Ba/F3) (P09619 33-1106 limits assumed, change not shown): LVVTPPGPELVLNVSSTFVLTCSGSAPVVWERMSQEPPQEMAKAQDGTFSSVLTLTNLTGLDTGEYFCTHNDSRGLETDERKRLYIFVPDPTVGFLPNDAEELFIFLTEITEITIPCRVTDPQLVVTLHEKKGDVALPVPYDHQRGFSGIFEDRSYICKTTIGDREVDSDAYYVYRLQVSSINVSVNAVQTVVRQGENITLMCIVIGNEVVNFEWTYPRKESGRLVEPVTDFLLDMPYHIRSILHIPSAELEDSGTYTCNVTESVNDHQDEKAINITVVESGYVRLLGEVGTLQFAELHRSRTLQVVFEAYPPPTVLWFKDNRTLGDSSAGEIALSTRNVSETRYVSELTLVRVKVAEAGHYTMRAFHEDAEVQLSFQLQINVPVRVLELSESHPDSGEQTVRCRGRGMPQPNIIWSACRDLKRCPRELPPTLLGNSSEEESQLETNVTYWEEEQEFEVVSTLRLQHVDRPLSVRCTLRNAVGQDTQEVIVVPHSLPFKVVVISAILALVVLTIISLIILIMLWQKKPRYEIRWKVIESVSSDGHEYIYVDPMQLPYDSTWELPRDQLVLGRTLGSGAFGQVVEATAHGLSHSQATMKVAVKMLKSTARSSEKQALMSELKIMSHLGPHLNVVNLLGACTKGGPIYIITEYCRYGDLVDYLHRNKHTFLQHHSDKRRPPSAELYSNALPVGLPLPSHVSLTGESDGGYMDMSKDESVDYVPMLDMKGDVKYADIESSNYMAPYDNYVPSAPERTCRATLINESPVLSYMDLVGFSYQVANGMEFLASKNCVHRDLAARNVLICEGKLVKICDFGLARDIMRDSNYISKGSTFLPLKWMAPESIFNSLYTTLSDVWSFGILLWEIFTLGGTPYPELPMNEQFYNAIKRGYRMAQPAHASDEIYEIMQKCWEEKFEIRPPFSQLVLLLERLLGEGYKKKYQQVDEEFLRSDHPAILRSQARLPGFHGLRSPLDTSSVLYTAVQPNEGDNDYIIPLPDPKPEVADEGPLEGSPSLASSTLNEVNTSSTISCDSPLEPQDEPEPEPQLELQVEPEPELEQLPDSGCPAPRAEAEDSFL
Sequence of PDGFR-β (P09619 33-1106): as the sequence (P09619 33-1106 limits assumed, change not shown) above
Sequence of TEL-KIT fusion gene transfected cells (Ba/F3) (P10721 26-976 limits assumed, change not shown): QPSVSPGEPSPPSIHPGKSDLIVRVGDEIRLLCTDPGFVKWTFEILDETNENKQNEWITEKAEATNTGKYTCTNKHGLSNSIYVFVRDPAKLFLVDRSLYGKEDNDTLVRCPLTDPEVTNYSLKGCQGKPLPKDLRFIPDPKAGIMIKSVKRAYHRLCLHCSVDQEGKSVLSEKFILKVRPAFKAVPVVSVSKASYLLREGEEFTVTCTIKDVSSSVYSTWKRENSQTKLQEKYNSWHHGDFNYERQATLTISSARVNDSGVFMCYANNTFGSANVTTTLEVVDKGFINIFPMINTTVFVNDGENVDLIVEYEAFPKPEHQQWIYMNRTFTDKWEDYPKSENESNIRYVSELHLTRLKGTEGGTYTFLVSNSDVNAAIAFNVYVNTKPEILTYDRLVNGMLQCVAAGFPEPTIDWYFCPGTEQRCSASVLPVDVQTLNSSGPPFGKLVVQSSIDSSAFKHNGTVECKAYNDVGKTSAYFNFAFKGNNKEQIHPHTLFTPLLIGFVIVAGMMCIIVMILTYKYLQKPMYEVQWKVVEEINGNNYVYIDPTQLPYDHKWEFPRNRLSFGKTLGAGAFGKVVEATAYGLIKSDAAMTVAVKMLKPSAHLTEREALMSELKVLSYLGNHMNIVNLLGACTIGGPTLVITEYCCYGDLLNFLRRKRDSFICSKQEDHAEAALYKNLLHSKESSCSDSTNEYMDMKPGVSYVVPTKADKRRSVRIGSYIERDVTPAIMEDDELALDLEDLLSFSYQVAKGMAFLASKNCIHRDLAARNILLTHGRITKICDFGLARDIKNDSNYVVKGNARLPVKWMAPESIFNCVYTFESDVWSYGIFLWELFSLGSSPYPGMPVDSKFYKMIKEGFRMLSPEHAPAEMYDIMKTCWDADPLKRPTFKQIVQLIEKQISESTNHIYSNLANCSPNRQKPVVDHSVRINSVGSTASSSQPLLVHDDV

In the case of `Cc1ccc(C(=O)N[C@H]2CCCC[C@@H]2O)cc1NC(=O)c1cnc(NC2CC2)s1` [Example 1, 2-(cyclopropylamino)-N-(5-{[(1S,2S)-2-hydroxycyclohexyl]carbamoyl}-2-methylphenyl)-1,3-thiazole-5-carboxamide], the pIC50 was 8.23 in test [1], 7.77 in test [2], 6.96 in test [3] (setting [5]) and 6.32 in test [4].

Take `Cc1ccc(C(=O)N[C@H]2CCCC[C@@H]2O)cc1NC(=O)c1cncc(-c2ccccc2)c1` [Example 2, N-(5-{[(1S,2S)-2-hydroxycyclohexyl]carbamoyl}-2-methylphenyl)-5-phenylpyridine-3-carboxamide]: the pIC50 was 7.66 in test [1], 8.44 in test [2], 7.64 in test [3] (setting [5]) and 6.70 in test [4].

For `Cc1ccc(C(=O)N[C@H]2CCCC[C@@H]2O)cc1NC(=O)c1cnc(CC2CC2)s1` [Example 3, 2-(cyclopropylmethyl)-N-(5-{[(1S,2S)-2-hydroxycyclohexyl]carbamoyl}-2-methylphenyl)-1,3-thiazole-5-carboxamide], the pIC50 was 7.09 in test [1], 8.85 in test [2], 7.52 in test [3] (setting [5]) and 6.21 in test [4].

Regarding `Cc1ccc(C(=O)N[C@H]2CCCC[C@@H]2O)cc1NC(=O)c1cncc(NC2CC2)c1` [Example 4, 5-(cyclopropylamino)-N-(5-{[(1S,2S)-2-hydroxycyclohexyl]carbamoyl}-2-methylphenyl)pyridine-3-carboxamide], the pIC50 in test [1] is 8.31; in test [2], 7.59; in test [3] (setting [5]) it was 6.66; in test [4], 5.82.

For the compound `Cc1ccc(C(=O)N[C@H]2CCCC[C@@H]2O)cc1NC(=O)c1cnc(-c2ccccc2)o1` [Example 5, N-(5-{[(1S,2S)-2-hydroxycyclohexyl]carbamoyl}-2-methylphenyl)-2-phenyl-1,3-oxazole-5-carboxamide], the pIC50 in test [1] was 8.21; in test [2], 8.24; in test [3] (setting [5]), 7.32; in test [4], 6.77.

Regarding `Cc1ccc(C(=O)N[C@H](CO)c2ccccc2)cc1NC(=O)c1cncc(-c2ccccc2)c1` [Example 6, N-(5-{[(1S)-2-hydroxy-1-phenylethyl]carbamoyl}-2-methylphenyl)-5-phenylpyridine-3-carboxamide], the pIC50 in test [1] is 7.92; in test [2], 7.85; in test [3] (setting [5]), 7.64; in test [4], 6.77.

On to `Cc1ccc(C(=O)N[C@H]2CCCC[C@@H]2O)cc1C(=O)Nc1cncc(-c2ccccc2)c1` [Example 77, N^1-[(1S,2S)-2-hydroxycyclohexyl]-4-methyl-N^3-(5-phenylpyridin-3-yl)benzene-1,3-dicarboxamide], for which the pIC50 in test [1] is 7.42; in test [2], 7.10; in test [4], 6.22.

As for `Cc1ccc(C(=O)N[C@H]2CCCC[C@@H]2O)cc1OC(C)c1cncc(-c2ncccn2)c1` (stereo partly drawn) [Example 171, N-[(1S,2S)-2-hydroxycyclohexyl]-4-methyl-3-{1-[5-(pyrimidin-2-yl)pyridin-3-yl]ethoxy}benzamide], the pIC50 in test [1] is 6.59; in test [2], 7.92; in test [4], 5.62.

In the case of `Cc1ccc(C(=O)N[C@H]2CCCC[C@@H]2O)cc1CCc1cncc(-c2ccccc2)c1` [Example 174, N-[(1S,2S)-2-hydroxycyclohexyl]-4-methyl-3-[2-(5-phenylpyridin-3-yl)ethyl]benzamide], the pIC50 is 7.57 in test [1], 7.30 in test [2] and 6.06 in test [4].

`CCN1CCN(Cc2cncc(/C(F)=C/c3cc(C(=O)N[C@H]4CCCC[C@@H]4O)ccc3C)c2)CC1` [Example 194, 3-[(Z)-2-{5-[(4-ethylpiperazin-1-yl)methyl]pyridin-3-yl}-2-fluoroethenyl]-N-[(1S,2S)-2-hydroxycyclohexyl]-4-methylbenzamide]: the pIC50 in test [1] is 7.46; in test [3] (setting [6]) it was 7.13.

As for `Cc1ncc(C(=O)N[C@H]2CCCC[C@@H]2O)cc1/C=C(\F)c1cncc(NC2COC2)c1` [Example 195, 5-[(Z)-2-fluoro-2-{5-[(oxetan-3-yl)amino]pyridin-3-yl}ethenyl]-N-[(1S,2S)-2-hydroxycyclohexyl]-6-methylpyridine-3-carboxamide], the pIC50 in test [1] is 7.72; in test [3] (setting [6]), 7.59.

On to `O=C(N[C@H]1CCCC[C@@H]1O)c1ccc(F)c(/C=C(\F)c2cncc(NC3COC3)c2)c1` [Example 196, 4-fluoro-3-[(Z)-2-fluoro-2-{5-[(oxetan-3-yl)amino]pyridin-3-yl}ethenyl]-N-[(1S,2S)-2-hydroxycyclohexyl]benzamide], for which the pIC50 was 7.59 in test [1] and 7.51 in test [3] (setting [6]).

Take `Cc1ccc(C(=O)N[C@H]2CCCC[C@@H]2O)cc1/C=C(\F)c1ccc(NCCN(C)C)nc1` [Example 197, 3-[(Z)-2-(6-{[2-(dimethylamino)ethyl]amino}pyridin-3-yl)-2-fluoroethenyl]-N-[(1S,2S)-2-hydroxycyclohexyl]-4-methylbenzamide]: the pIC50 is 6.92 in test [1] and 6.96 in test [3] (setting [6]).

Take `Cc1ccc(C(=O)N[C@H]2CCCC[C@@H]2O)cc1/C=C(\F)c1cncc(NCCN(C)C)c1` [Example 198, 3-[(Z)-2-(5-{[2-(dimethylamino)ethyl]amino}pyridin-3-yl)-2-fluoroethenyl]-N-[(1S,2S)-2-hydroxycyclohexyl]-4-methylbenzamide]: the pIC50 in test [1] was 8.14; in test [3] (setting [6]), 7.41.

Regarding `Cc1ncc(C(=O)N[C@H]2CCCC[C@@H]2O)cc1/C=C(\F)c1ccc(NCC2CC2)nc1` [Example 199, 5-[(Z)-2-{6-[(cyclopropylmethyl)amino]pyridin-3-yl}-2-fluoroethenyl]-N-[(1S,2S)-2-hydroxycyclohexyl]-6-methylpyridine-3-carboxamide], the pIC50 in test [1] was 7.28; in test [3] (setting [6]) it was 7.15.

With `Cc1ccc(C(=O)N[C@H]2c3ccccc3C[C@@H]2O)cc1/C=C(\F)c1cncc(CN2CCN(C)CC2)c1` [Example 200, 3-[(Z)-2-fluoro-2-{5-[(4-methylpiperazin-1-yl)methyl]pyridin-3-yl}ethenyl]-N-[(1S,2S)-2-hydroxy-2,3-dihydro-1H-inden-1-yl]-4-methylbenzamide], the pIC50 is 7.80 in test [1] and 6.92 in test [3] (setting [6]).

Turning to `Cc1ccc(C(=O)NCC(O)C(C)(C)C)cc1/C=C(\F)c1cncc(CN2CCN(C)CC2)c1` (stereo not shown) [Example 201, 3-[(Z)-2-fluoro-2-{5-[(4-methylpiperazin-1-yl)methyl]pyridin-3-yl}ethenyl]-N-(2-hydroxy-3,3-dimethylbutyl)-4-methylbenzamide], the pIC50 in test [1] is 7.42; in test [3] (setting [6]), 6.92.

As for `O=C(N[C@H]1CCCC[C@@H]1O)c1ccc(F)c(/C=C(\F)c2cnc(NCC3CC3)nc2)c1` [Example 202, 3-[(Z)-2-{2-[(cyclopropylmethyl)amino]pyrimidin-5-yl}-2-fluoroethenyl]-4-fluoro-N-[(1S,2S)-2-hydroxycyclohexyl]benzamide], the pIC50 in test [1] was 7.11; in test [3] (setting [6]), 7.48.

Take `O=C(N[C@H]1CCCC[C@@H]1O)c1ccc(F)c(/C=C(\F)c2cnc(NC3CC3)nc2)c1` [Example 203, 3-{(Z)-2-[2-(cyclopropylamino)pyrimidin-5-yl]-2-fluoroethenyl}-4-fluoro-N-[(1S,2S)-2-hydroxycyclohexyl]benzamide]: the figures for the pIC50 in test [1] and in test [3] (setting [6]) were 7.21 and 6.70, respectively.

Turning to `Cc1nc(N)ncc1/C(F)=C/c1cc(C(=O)N[C@H]2CCCC[C@@H]2O)ccc1F` [Example 204, 3-[(Z)-2-(2-amino-4-methylpyrimidin-5-yl)-2-fluoroethenyl]-4-fluoro-N-[(1S,2S)-2-hydroxycyclohexyl]benzamide], the results for the pIC50 in test [1] and in test [3] (setting [6]) were 7.68 and 7.28, respectively.

As to `CNc1ncc(/C(F)=C/c2cc(C(=O)N[C@H]3CCCC[C@@H]3O)ccc2F)cn1` [Example 205, 4-fluoro-3-{(Z)-2-fluoro-2-[2-(methylamino)pyrimidin-5-yl]ethenyl}-N-[(1S,2S)-2-hydroxycyclohexyl]benzamide], the values for the pIC50 in test [1] and in test [3] (setting [6]) were 6.89 and 6.80, respectively.

As for `Cc1ccc(C(=O)N[C@H]2CCCC[C@@H]2O)cc1/C=C(\F)c1cnc(N)cn1` [Example 206, 3-[(Z)-2-(5-aminopyrazin-2-yl)-2-fluoroethenyl]-N-[(1S,2S)-2-hydroxycyclohexyl]-4-methylbenzamide], the pIC50 is 7.51 in test [1] and 7.04 in test [3] (setting [5]).

Regarding `O=C(N[C@H]1CCCC[C@@H]1O)c1ccc(F)c(/C=C(\F)c2cncc(F)c2)c1` [Example 207, 4-fluoro-3-[(Z)-2-fluoro-2-(5-fluoropyridin-3-yl)ethenyl]-N-[(1S,2S)-2-hydroxycyclohexyl]benzamide], the pIC50 in test [1] and in test [3] (setting [5]) was 7.00 each time.
